Assay results reported in patent US10660876B2, “Amino compounds for treatment of medical disorders” (Achillion Pharmaceuticals, Inc., priority 2015, dated 2020).

Target: Human Factor D (Homo sapiens (Human), UniProt P00746)
Test: Human Factor D Assay
Assay type: biochemical
Settings: Table 1; Factor D purified from human serum, 80 nM, substrate Z-L-Lys-SBzl; read-out: IC50
Description: Example 12. Human Factor D Assay
Human Factor D (purified from human serum, Complement Technology, Inc.) at 80 nM final concentration is incubated with test compound at various concentrations for 5 minutes at room temperature in 50 mM Tris, 1M NaCl, pH 7.5. A synthetic substrate Z-L-Lys-SBzl and DTNB (Ellman's reagent) are added to final concentrations of 100 μM each. Absorbance at 405 nm (A405) is recorded at 30 second intervals for 30 minutes using a microplate spectrophotometer. IC50 values are calculated by nonlinear regression of complement Factor D reaction rates as a function of test compound concentration.

Human Factor D, sequence (P00746 26-253): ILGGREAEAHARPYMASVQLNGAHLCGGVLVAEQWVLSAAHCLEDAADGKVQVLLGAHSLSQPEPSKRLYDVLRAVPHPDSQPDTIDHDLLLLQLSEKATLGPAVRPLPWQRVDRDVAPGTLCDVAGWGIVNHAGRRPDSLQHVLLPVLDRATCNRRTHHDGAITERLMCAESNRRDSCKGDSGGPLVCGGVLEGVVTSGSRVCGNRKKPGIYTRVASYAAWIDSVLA

Structure (SMILES)	IC50 [µM]
NC(=O)c1nn(CC(=O)N2C[C@H](F)C[C@H]2C(=O)Nc2cccc(-c3ccccc3Cl)c2F)c2ccc(Nc3cncnc3)cc12 [Compound 10, 1-(2-((2S,4R)-2-(2′-chloro-2-fluorobiphenyl-3-ylcarbamoyl)-4-fluoropyrrolidin-1-yl)-2-oxoethyl)-5-(pyrimidin-5-ylamino)-1H-indazole-3-carboxamide]	< 1
NC(=O)c1nn(CC(=O)N2C[C@H](F)C[C@H]2C(=O)Nc2cccc(-c3ccccc3Cl)c2F)c2ccc(Nc3cccnn3)cc12 [Compound 9, 1-(2-((2S,4R)-2-(2′-chloro-2-fluorobiphenyl-3-ylcarbamoyl)-4-fluoropyrrolidin-1-yl)-2-oxoethyl)-5-(pyridazin-3-ylamino)-1H-indazole-3-carboxamide]	< 1
CC(=O)c1cn(CC(=O)N2C[C@H](F)C[C@H]2C(=O)Nc2nc(-c3ccc4c(c3)CCCC4)cs2)c2ccc(Nc3cncnc3)cc12 [Compound 50, (2S,4R)-1-(2-(3-acetyl-5-(pyrimidin-5-ylamino)-1H-indol-1-yl)acetyl)-4-fluoro-N-(4-(5,6,7,8-tetrahy-dronaphthalen-2-yl)thiazol-2-yl)pyrrolidine-2-carboxamide]	> 10
CC(=O)c1cn(CC(=O)N2C[C@H](F)C[C@H]2C(=O)NCc2cccc(Cl)c2F)c2cc(NS(=O)(=O)C(F)(F)F)ccc12 [Compound 2, (2S,4R)-1-(2-(3-acetyl-6-(trifluoromethyl-sulfonamido)-1H-indol-1-yl)acetyl)-N-(3-chloro-2-fluorobenzyl)-4-fluoropyrrolidine-2-carboxamide]	< 1
CC(=O)c1cn(CC(=O)N2C[C@H](F)C[C@H]2C(=O)NC2CCCN(c3cnn(C)c3)C2)c2ccc(Nc3cncnc3)cc12 (stereo partly drawn) [Compound 42, (2S,4R)-1-(2-(3-acetyl-5-(pyrimidin-5-ylamino)-1H-indol-1-yl)acetyl)-4-fluoro-N-(1-(1-methyl-1H-pyrazol-4-yl)piperidin-3-yl)pyrrolidine-2-carboxamide]	< 1
CC(=O)c1cn(CC(=O)N2C[C@H](F)C[C@H]2C(=O)Nc2cncc(Br)c2)c2ccc(Nc3cncnc3)cc12 [Compound 21, (2S,4R)-1-(2-(3-acetyl-5-(pyrimidin-5-ylamino)-1H-indol-1-yl)acetyl)-N-(5-bromopyridin-3-yl)-4-fluoropyrrolidine-2-carboxamide]	< 1
CC(=O)c1cn(CC(=O)N2C[C@H](F)C[C@H]2C(=O)Nc2noc(-c3ccccc3Cl)n2)c2ccc(Nc3cncnc3)cc12 [Compound 62, (2S,4R)-1-(2-(3-acetyl-5-(pyrimidin-5-ylamino)-1H-indol-1-yl)acetyl)-N-(5-(2-chlorophenyl)-1,2,4-oxadiazol-3-yl)-4-fluoropyrrolidine-2-carboxamide]	< 1
CC(=O)c1cn(CC(=O)N2C[C@H](F)C[C@H]2C(=O)Nc2ccccc2-c2nncn2C)c2ccc(Nc3cncnc3)cc12 [Compound 61, (2S,4R)-1-(2-(3-acetyl-5-(pyrimidin-5-ylamino)-1H-indol-1-yl)acetyl)-4-fluoro-N-(2-(4-methyl-4H-1,2,4-triazol-3-yl)phenyl) pyrrolidine-2-carboxamide]	> 10
CC(=O)c1cn(CC(=O)N2C[C@H](F)C[C@H]2C(=O)NCc2cccc(Cl)c2)c2ccc(Nc3cncnc3)cc12 [Compound 19, (2S,4R)-1-(2-(3-acetyl-5-(pyrimidin-5-ylamino)-1H-indol-1-yl)acetyl)-N-(3-chlorobenzyl)-4-fluoropyrrolidine-2-carboxamide]	< 1
CC(=O)c1cn(CC(=O)N2C[C@H](F)C[C@H]2C(=O)Nc2cccc(-c3ccccc3Cl)c2F)c2ccc(Nc3cncnc3)cc12 [Compound 3, (2S,4R)-1-(2-(3-acetyl-5-(pyrimidin-5-ylamino)-1H-indol-1-yl)acetyl)-N-(2′-chloro-2-fluorobiphenyl-3-yl)-4-fluoropyrrolidine-2-carboxamide]	< 1
CC(=O)c1cn(CC(=O)N2C[C@H](F)C[C@H]2C(=O)Nc2cc(O)ccn2)c2ccc(Nc3cncnc3)cc12 [Compound 72, (2S,4R)-1-(2-(3-acetyl-5-(pyrimidin-5-ylamino)-1H-indol-1-yl)acetyl)-4-fluoro-N-(4-hydroxypyridin-2-yl)pyrrolidine-2-carboxamide]	< 1
NC(=O)c1nn(CC(=O)N2C[C@H](F)C[C@H]2C(=O)Nc2cccc(-c3ccccc3Cl)c2F)c2ccc(Nc3cnc(C(F)(F)F)nc3)cc12 [Compound 14, 1-(2-((2S,4R)-2-(2′-chloro-2-fluorobiphenyl-3-ylcarbamoyl)-4-fluoropyrrolidin-1-yl)-2-oxoethyl)-5-(2-(trifluoromethyl)pyrimidin-5-ylamino)-1H-indazole-3-carboxamide]	< 1
CC(=O)c1cn(CC(=O)N2C[C@H](F)C[C@H]2C(=O)N[C@@H]2CCC[C@H]2O)c2ccc(Nc3cncnc3)cc12 [Compound 69, (2S,4R)-1-(2-(3-acetyl-5-(pyrimidin-5-ylamino)-1H-indol-1-yl)acetyl)-4-fluoro-N-((1R,2R)-2-hydroxy-cyclopentyl) pyrrolidine-2-carboxamide]	1 to 10
CC(=O)c1cn(CC(=O)N2C[C@H](F)C[C@H]2C(=O)Nc2nn(C)c3c2CC(C)C(=O)N3)c2ccc(Nc3cncnc3)cc12 (stereo partly shown) [Compound 67, (2S 4R)-1-(2-(3-acetyl-5-(pyrimidin-5-ylamino)-1H-indol-1-yl)acetyl)-N-(1,5-dimethyl-6-oxo-4,5,6,7-tetrahydro-1H-pyrazolo[3,4-b]pyridin-3-yl)-4-fluoropyrrolidine-2-carboxamide]	1 to 10
CC(=O)c1cn(CC(=O)N2C[C@H](F)C[C@H]2C(=O)N[C@H](C)c2oc3ccc(F)cc3c2C)c2ccc(Nc3cncnc3)cc12 [Compound 74, (2S,4R)-1-(2-(3-acetyl-5-(pyrimidin-5-ylamino)-1H-indol-1-yl)acetyl)-4-fluoro-N-((R)-1-(5-fluoro-3-methyl-benzofuran-2-yl)ethyl) pyrrolidine-2-carboxamide]	> 10
CC(=O)c1cn(CC(=O)N2C[C@H](F)C[C@H]2C(=O)Nc2cccc(O)n2)c2ccc(Nc3cncnc3)cc12 [Compound 68, (2S,4R)-1-(2-(3-acetyl-5-(pyrimidin-5-ylamino)-1H-indol-1-yl)acetyl)-4-fluoro-N-(6-hydroxypyridin-2-yl)pyrrolidine-2-carboxamide]	< 1
CC(=O)c1cn(CC(=O)N2C[C@H](F)C[C@H]2C(=O)NC2CCCN(c3cc(C)ccc3F)C2=O)c2ccc(Nc3cncnc3)cc12 (stereo partly drawn) [Compound 63, (2S,4R)-1-(2-(3-acetyl-5-(pyrimidin-5-ylamino)-1H-indol-1-yl)acetyl)-4-fluoro-N-(1-(2-fluoro-5-methylphenyl)-2-oxopiperidin-3-yl)pyrrolidine-2-carboxamide]	< 1
CC(=O)c1cn(CC(=O)N2C[C@H](F)C[C@H]2C(=O)Nc2ncc(Br)cn2)c2ccc(Nc3cncnc3)cc12 [Compound 44, (2S,4R)-1-(2-(3-acetyl-5-(pyrimidin-5-ylamino)-1H-indol-1-yl)acetyl)-N-(5-bromopyrimidin-2-yl)-4-fluoropyrrolidine-2-carboxamide]	< 1
N#Cc1cnc(Nc2ccc3c(c2)c(C(N)=O)nn3CC(=O)N2C[C@H](F)C[C@H]2C(=O)Nc2cccc(-c3ccccc3Cl)c2F)nc1 [Compound 13, 1-(2-((2S,4R)-2-(2′-chloro-2-fluorobiphenyl-3-ylcarbamoyl)-4-fluoropyrrolidin-1-yl)-2-oxoethyl)-5-(5-cyanopyrimidin-2-ylamino)-1H-indazole-3-carboxamide]	< 1
CC(=O)c1cn(CC(=O)N2C[C@H](F)C[C@H]2C(=O)Nc2noc3cc(C(F)(F)F)ccc23)c2ccc(Nc3cncnc3)cc12 [Compound 52, (2S,4R)-1-(2-(3-acetyl-5-(pyrimidin-5-ylamino)-1H-indol-1-yl)acetyl)-4-fluoro-N-(6-(trifluoromethyl)benzo[d]isoxazol-3-yl)pyrrolidine-2-carboxamide]	1 to 10

Same assay, conditions: Table 2; Factor D purified from human serum, 80 nM, substrate Z-L-Lys-SBzl; read-out: IC50

Structure (SMILES)	IC50 [µM]
COCCOc1ncc(Nc2ccc3c(c2)c(C(C)=O)cn3CC(=O)N2C[C@H](F)C[C@H]2C(=O)Nc2cccc(Br)n2)cn1 [Compound 76, (2S,4R)-1-(2-(3-acetyl-5-(2-(2-methoxyethoxy)pyrimidin-5-ylamino)-1H-indol-1-yl)acetyl)-N-(6-bromopyridin-2-yl)-4-fluoropyrrolidine-2-carboxamide]	< 1

Same assay, conditions: Table 3; Factor D purified from human serum, 80 nM, substrate Z-L-Lys-SBzl; read-out: IC50 (Stars)

Structure (SMILES)	IC50 [µM]
CC(=O)c1cn(CC(=O)N2C[C@H](F)C[C@H]2C(=O)NCc2ccccc2)c2ccc(Nc3cccnc3)cc12 [Compound 146, (2S,4R)-1-(2-(3-acetyl-5-(pyridin-3-ylamino)-1H-indol-1-yl)acetyl)-N-benzyl-4-fluoropyrrolidine-2-carboxamide]	< 1
CC(=O)c1cn(CC(=O)N2C[C@H](F)C[C@H]2C(=O)NCCCc2ccccc2)c2ccc(Nc3cccnc3)cc12 [Compound 150, (2S,4R)-1-(2-(3-acetyl-5-(pyridin-3-ylamino)-1H-indol-1-yl)acetyl)-4-fluoro-N-(3-phenylpropyl) pyrrolidine-2-carboxamide]	< 1
CC(=O)c1cn(CC(=O)N2CC[C@H]2C(=O)Nc2cccc(C)n2)c2ccc(Nc3cncnc3)cc12 [Compound 160, (S)-1-(2-(3-acetyl-5-(pyrimidin-5-ylamino)-1H-indol-1-yl)acetyl)-N-(6-methylpyridin-2-yl)azetidine-2-carboxamide]	> 10
CC(=O)c1cn(CC(=O)N2C[C@H](F)C[C@H]2C(=O)NCCCCc2ccccc2)c2ccc(Nc3cncnc3)cc12 [Compound 156, (2S,4R)-1-(2-(3-acetyl-5-(pyrimidin-5-ylamino)-1H-indol-1-yl)acetyl)-4-fluoro-N-(4-phenylbutyl) pyrrolidine-2-carboxamide]	< 1
